The source of these data is patent US10477864B2, “Microbiocidal quinoline (thio)carboxamide derivatives” (priority 2016, dated 2019).

The test system of series [1] is Monographella nivalis (Microdochium nivale). Put plainly: Monographella nivalis (Microdochium nivale) / liquid culture (foot rot cereals). To be noted: 96 h, read-out: control of Monographella nivalis. It is filed as cell-based.
For series [2], the system named is Fusarium culmorum. Put plainly: microbe, parasite or virus in culture. To be noted: read-out: control of Fusarium culmorum. Format: cell-based.
In series [3] the test system is Magnaporthe grisea (Pyricularia oryzae). Put plainly: microbe, parasite or virus in culture. It is filed as cell-based. To be noted: 72 h, read-out: control of Magnaporthe grisea.
The subject of series [4] is Botryotinia fuckeliana (Botrytis cinerea). Briefly: Botryotinia fuckeliana (Botrytis cinerea) / liquid culture (gray mould). Format: cell-based. Particulars: 72 h, read-out: control of Botryotinia fuckeliana.
Series [5] has as its system Fusarium culmorum. Put plainly: whole plant or invertebrate. It is filed as in vivo. To be noted: in Triticum aestivum, read-out: control of Fusarium culmorum.
Series [6] relates to Glomerella lagenarium (Colletotrichum lagenarium). Put plainly: Glomerella lagenarium (Colletotrichum lagenarium) / liquid culture (anthracnose). To be noted: Colletotrichum orbiculare; read-out: control of Glomerella lagenarium. It is filed as cell-based.
The subject of another series is Gaeumannomyces graminis. Briefly: Gaeumannomyces graminis / liquid culture (take-all of cereals). To be noted: read-out: control of Gaeumannomyces graminis. It is filed as cell-based.

SMILES strings stand for the structures. A value given as a limit tells only on which side of the number the result lay.

On to `CC(C)C(C)(Cc1ccccc1)NC(=O)c1cnc2c(F)cccc2c1` (stereo not drawn) [Compound E-5, N-(1-benzyl-1,2-dimethyl-propyl)-8-fluoro-quinoline-3-carboxamide], for which the inhibition of growth at 200 ppm (in series [1]; in the series on Fusarium culmorum [2]; in series [3]; in series [4]; in series [6]) was at least 80% in each case. Besides, the pest or weed control at 200 ppm in the series on Fusarium culmorum [5] is at least 80%.
On to `CC(C#N)(Cc1ccc(Cl)cc1)NC(=O)c1cnc2c(F)cccc2c1` (stereo not drawn) [Compound E-7, N-[2-(4-chlorophenyl)-1-cyano-1-methyl-ethyl]-8-fluoro-quinoline-3-carboxamide], for which the inhibition of growth at 200 ppm (with Fusarium culmorum [2]; with Gaeumannomyces graminis; in series [4]) was at least 80% in each case.
`CC(C#N)(Cc1ccc(F)cc1F)NC(=O)c1cnc2c(F)cccc2c1` (stereo not drawn) [Compound E-8, N-[1-cyano-2-(2,4-difluorophenyl)-1-methyl-ethyl]-8-fluoro-quinoline-3-carboxamide]: the inhibition of growth at 200 ppm (in the series on Fusarium culmorum [2]; with Gaeumannomyces graminis; in series [4]) was at least 80% in each case.
Take `CC(C#N)(Cc1ccccc1)NC(=O)c1cnc2c(F)cccc2c1` (stereo not drawn) [Compound E-10, N-(1-cyano-1-methyl-2-phenyl-ethyl)-8-fluoro-quinoline-3-carboxamide]: the inhibition of growth at 200 ppm (in the series with Fusarium culmorum [2]; in the series with Gaeumannomyces graminis; in series [4]) was at least 80% throughout. The pest or weed control at 200 ppm in the series on Fusarium culmorum [5] was at least 80%.
Compound `CC(C)(C)C(Cc1ccccc1)NC(=O)c1cnc2c(F)cccc2c1` (stereo not drawn) [Compound E-12, N-(1-benzyl-2,2-dimethyl-propyl)-8-fluoro-quinoline-3-carboxamide] showed a melting point of 163 to 164 °C. In series [1], the inhibition of growth at 200 ppm is at least 80%. Also, the inhibition of growth at 200 ppm in the series on Fusarium culmorum [2] was at least 80%. Further, the inhibition of growth at 200 ppm in series [3] was at least 80%. Also, the inhibition of growth at 200 ppm in series [4] is at least 80%. The pest or weed control at 200 ppm with Fusarium culmorum [5] was at least 80%. In series [6], the inhibition of growth at 200 ppm was at least 80%.
In turn, `O=C(NC(Cc1ccccc1)CC(F)(F)F)c1cnc2c(F)cccc2c1` (stereo not drawn) [Compound E-30, N-(1-benzyl-3,3,3-trifluoro-propyl)-8-fluoro-quinoline-3-carboxamide] came in with a melting point of 140 to 142 °C. For the same compound, the inhibition of growth at 200 ppm in series [1] was at least 80%. The inhibition of growth at 200 ppm in the series on Fusarium culmorum [2] is at least 80%. In addition, in series [3], the inhibition of growth at 200 ppm is at least 80%. In addition, the inhibition of growth at 200 ppm in series [4] is at least 80%. Further, the pest or weed control at 200 ppm with Fusarium culmorum [5] was at least 80%. Besides, the inhibition of growth at 200 ppm in series [6] is at least 80%.
The compound `Cc1ccc(CC(C)(CC(C)C)NC(=O)c2cnc3c(F)cccc3c2)cc1` (stereo not drawn) [Compound E-31, N-[1,3-dimethyl-1-(p-tolylmethyl)butyl]-8-fluoro-quinoline-3-carboxamide] showed a melting point of 116 to 118 °C. Also, in series [1], the inhibition of growth at 200 ppm was at least 80%. In addition, in the series on Fusarium culmorum [2], the inhibition of growth at 200 ppm is at least 80%. Further, the inhibition of growth at 200 ppm in series [3] was at least 80%. In addition, the inhibition of growth at 200 ppm in series [4] was at least 80%. In series [6], the inhibition of growth at 200 ppm was at least 80%.
`Cc1cccc(CC(C)(CC(C)C)NC(=O)c2cnc3c(F)cccc3c2)c1` (stereo not drawn) [Compound E-33, N-[1,3-dimethyl-1-(m-tolylmethyl)butyl]-8-fluoro-quinoline-3-carboxamide] registered a melting point of 94 to 96 °C. Further, in series [1], the inhibition of growth at 200 ppm is at least 80%. For the same compound, the inhibition of growth at 200 ppm in the series on Fusarium culmorum [2] was at least 80%. In series [3], the inhibition of growth at 200 ppm was at least 80%. Besides, the inhibition of growth at 200 ppm in series [4] was at least 80%. In series [6], the inhibition of growth at 200 ppm was at least 80%.
In the case of `CC(Cc1ccccc1)(CC1CC1)NC(=O)c1cnc2c(F)cccc2c1` (stereo not drawn) [Compound E-49, N-(1-benzyl-2-cyclopropyl-1-methyl-ethyl)-8-fluoro-quinoline-3-carboxamide], the inhibition of growth at 200 ppm (in series [1]; with Fusarium culmorum [2]; in series [3]; in series [4]; in series [6]) was at least 80% each time. For the same compound, the pest or weed control at 200 ppm in the series on Fusarium culmorum [5] is at least 80%.
`CC(C)CC(C)(NC(=O)c1cnc2c(F)cccc2c1)C(F)(F)c1ccccc1` (stereo not drawn) [Compound E-54, N-[1-[difluoro(phenyl)methyl]-1,3-dimethyl-butyl]-8-fluoro-quinoline-3-carboxamide]: the inhibition of growth at 200 ppm (in series [1]; in the series with Fusarium culmorum [2]; in series [3]; in series [4]; in series [6]) was at least 80% each time.
On to `CC(C)(F)CC(C)(Cc1ccccc1)NC(=O)c1cnc2c(F)cccc2c1` (stereo not drawn) [Compound E-56, N-(1-benzyl-3-fluoro-1,3-dimethyl-butyl)-8-fluoro-quinoline-3-carboxamide], for which the inhibition of growth at 200 ppm (in series [1]; in the series on Fusarium culmorum [2]; in series [3]; in series [4]; in series [6]) was at least 80% in each case. Also, the pest or weed control at 200 ppm in the series on Fusarium culmorum [5] was at least 80%.
For the compound `CC(C)(F)CC(C)(Cc1ccccc1)NC(=O)c1cnc2ccccc2c1` (stereo not drawn) [Compound E-57, N-(1-benzyl-3-fluoro-1,3-dimethyl-butyl)quinoline-3-carboxamide], the inhibition of growth at 200 ppm (in series [1]; with Fusarium culmorum [2]; in series [3]; in series [4]; in series [6]) was at least 80% throughout. In the series on Fusarium culmorum [5], the pest or weed control at 200 ppm is at least 80%.
Take `CC(C)CC(C)(NC(=O)c1cnc2ccccc2c1)C(F)(F)c1ccccc1` (stereo not drawn) [Compound E-59, N-[1-[difluoro(phenyl)methyl]-1,3-dimethyl-butyl]quinoline-3-carboxamide]: the inhibition of growth at 200 ppm (in series [1]; in the series with Fusarium culmorum [2]; in series [3]; in series [4]) was at least 80% each time. The pest or weed control at 200 ppm with Fusarium culmorum [5] was at least 80%.
On to `CC(Cc1ccccc1)(CC(F)(F)F)NC(=O)c1cnc2c(Cl)cccc2c1` (stereo not drawn) [Compound E-60, N-(1-benzyl-3,3,3-trifluoro-1-methyl-propyl)-8-chloro-quinoline-3-carboxamide], for which the melting point was 141 to 144 °C. The inhibition of growth at 200 ppm in series [1] was at least 80%. For the same compound, the inhibition of growth at 200 ppm in the series with Fusarium culmorum [2] was at least 80%. Also, the inhibition of growth at 200 ppm in series [3] was at least 80%. Moreover, in series [4], the inhibition of growth at 200 ppm was at least 80%. Besides, the pest or weed control at 200 ppm in the series on Fusarium culmorum [5] is at least 80%. Moreover, the inhibition of growth at 200 ppm in series [6] is at least 80%.
`CC(Cc1ccccc1)(CC(F)(F)F)NC(=O)c1cnc2cc(Cl)ccc2c1` (stereo not drawn) [Compound E-69, N-(1-benzyl-3,3,3-trifluoro-1-methyl-propyl)-7-chloro-quinoline-3-carboxamide] showed a melting point of 174 to 176 °C. The inhibition of growth at 200 ppm in the series on Fusarium culmorum [2] was at least 80%. Moreover, the inhibition of growth at 200 ppm in series [3] was at least 80%. In addition, the inhibition of growth at 200 ppm in series [4] is at least 80%. Besides, in the series on Fusarium culmorum [5], the pest or weed control at 200 ppm was at least 80%. The inhibition of growth at 200 ppm in series [6] is at least 80%.
With `CC(C)C[C@](C)(Cc1ccccc1Cl)NC(=O)c1cnc2c(F)cccc2c1` [Compound F-7, N-[(1R)-1-[(2-chlorophenyl)methyl]-1,3-dimethyl-butyl]-8-fluoro-quinoline-3-carboxamide], the inhibition of growth at 200 ppm (in the series on Fusarium culmorum [2]; in the series with Gaeumannomyces graminis; in series [4]; in series [6]) was at least 80% each time.
As for `CC(C)C[C@@](C)(Cc1ccccc1Cl)NC(=O)c1cnc2c(F)cccc2c1` [Compound F-8, N-[(1S)-1-[(2-chlorophenyl)methyl]-1,3-dimethyl-butyl]-8-fluoro-quinoline-3-carboxamide], the inhibition of growth at 200 ppm (in series [1]; in the series on Fusarium culmorum [2]; with Gaeumannomyces graminis; in series [4]; in series [6]) was at least 80% throughout.
Regarding `C=CC[C@](C)(Cc1ccccc1)NC(=O)c1cnc2c(F)cccc2c1` [Compound F-16, N-[(1R)-1-benzyl-1-methyl-but-3-enyl]-8-fluoro-quinoline-3-carboxamide], the inhibition of growth at 200 ppm (with Fusarium culmorum [2]; in the series on Gaeumannomyces graminis; in series [4]; in series [6]) was at least 80% each time. Further, in the series with Fusarium culmorum [5], the pest or weed control at 200 ppm is at least 80%.
As to `CC(C)(C)C[C@](C)(Cc1ccccc1)NC(=O)c1cnc2c(F)cccc2c1` [Compound F-17, N-[(1R)-1-benzyl-1,3,3-trimethyl-butyl]-8-fluoro-quinoline-3-carboxamide], the inhibition of growth at 200 ppm (in the series with Fusarium culmorum [2]; in the series with Gaeumannomyces graminis; in series [4]; in series [6]) was at least 80% each time. For the same compound, the pest or weed control at 200 ppm in the series on Fusarium culmorum [5] was at least 80%.
For `CC(F)(F)C[C@](C)(Cc1ccccc1)NC(=O)c1cnc2c(F)cccc2c1` [Compound F-39, N-[(1S)-1-benzyl-3,3-difluoro-1-methyl-butyl]-8-fluoro-quinoline-3-carboxamide], the inhibition of growth at 200 ppm (in series [1]; in the series with Fusarium culmorum [2]; in series [3]; in series [4]; in series [6]) was at least 80% each time. Further, in the series with Fusarium culmorum [5], the pest or weed control at 200 ppm is at least 80%.
